Activity calls are given as the source filed them. No cut-off for these calls is given here.

These results are taken from ChEMBL document CHEMBL4229413, “Identification by Inverse Virtual Screening of magnolol-based scaffold as new tankyrase-2 inhibitors” (Bioorg Med Chem, 2018).

The target in assay [1] is T1, Poly [ADP-ribose] polymerase tankyrase-2 (Homo sapiens, UniProt Q9H2K2).
T1 sequence (Q9H2K2 whole entry): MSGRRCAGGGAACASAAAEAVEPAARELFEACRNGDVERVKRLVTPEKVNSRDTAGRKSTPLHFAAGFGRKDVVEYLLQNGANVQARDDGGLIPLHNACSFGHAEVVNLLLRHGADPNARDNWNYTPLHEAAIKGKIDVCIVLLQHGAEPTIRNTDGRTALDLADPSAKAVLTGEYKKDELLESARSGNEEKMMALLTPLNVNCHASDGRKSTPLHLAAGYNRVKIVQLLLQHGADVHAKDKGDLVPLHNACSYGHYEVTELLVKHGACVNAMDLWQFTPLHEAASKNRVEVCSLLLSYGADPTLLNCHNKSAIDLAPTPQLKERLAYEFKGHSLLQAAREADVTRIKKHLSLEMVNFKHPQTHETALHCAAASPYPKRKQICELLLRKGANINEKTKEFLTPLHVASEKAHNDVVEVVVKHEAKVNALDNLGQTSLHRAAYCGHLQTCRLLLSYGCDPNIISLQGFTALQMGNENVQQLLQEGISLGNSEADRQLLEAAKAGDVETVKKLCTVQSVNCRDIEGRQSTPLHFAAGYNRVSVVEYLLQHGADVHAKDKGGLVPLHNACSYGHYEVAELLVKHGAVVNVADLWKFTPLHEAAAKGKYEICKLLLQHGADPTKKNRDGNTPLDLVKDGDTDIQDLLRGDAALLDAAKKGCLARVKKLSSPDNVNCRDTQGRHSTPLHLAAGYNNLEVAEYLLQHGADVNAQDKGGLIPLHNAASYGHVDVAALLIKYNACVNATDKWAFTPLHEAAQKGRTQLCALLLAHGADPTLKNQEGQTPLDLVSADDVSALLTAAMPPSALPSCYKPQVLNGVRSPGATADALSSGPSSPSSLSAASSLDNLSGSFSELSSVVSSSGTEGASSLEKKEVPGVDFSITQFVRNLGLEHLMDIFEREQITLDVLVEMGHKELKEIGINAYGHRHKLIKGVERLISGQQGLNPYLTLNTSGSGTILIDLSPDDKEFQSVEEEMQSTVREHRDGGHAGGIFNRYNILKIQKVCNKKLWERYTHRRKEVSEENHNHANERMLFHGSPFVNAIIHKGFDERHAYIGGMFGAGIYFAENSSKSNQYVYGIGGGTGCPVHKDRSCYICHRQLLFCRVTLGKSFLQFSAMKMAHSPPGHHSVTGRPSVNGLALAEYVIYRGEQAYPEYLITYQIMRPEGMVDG
In words: Binding affinity to recombinant human N-terminal His-tagged TNKS2 (Ser959 to Gly1166 residues) expressed in Escherichia coli by surface plasmon resonance analysis. Background: Surface plasmon resonance follows binding to a sensor surface in real time, without labels.

Assay [2] has as its target Casein kinase II alpha/beta (Homo sapiens, UniProt P67870+P68400). The assay can be described thus: Binding affinity to recombinant human CK2alpha/beta expressed in Escherichia coli by surface plasmon resonance analysis.
Assay [3] deals with T2, Poly [ADP-ribose] polymerase tankyrase-1 (Homo sapiens, UniProt O95271).
T2 sequence (O95271 whole entry): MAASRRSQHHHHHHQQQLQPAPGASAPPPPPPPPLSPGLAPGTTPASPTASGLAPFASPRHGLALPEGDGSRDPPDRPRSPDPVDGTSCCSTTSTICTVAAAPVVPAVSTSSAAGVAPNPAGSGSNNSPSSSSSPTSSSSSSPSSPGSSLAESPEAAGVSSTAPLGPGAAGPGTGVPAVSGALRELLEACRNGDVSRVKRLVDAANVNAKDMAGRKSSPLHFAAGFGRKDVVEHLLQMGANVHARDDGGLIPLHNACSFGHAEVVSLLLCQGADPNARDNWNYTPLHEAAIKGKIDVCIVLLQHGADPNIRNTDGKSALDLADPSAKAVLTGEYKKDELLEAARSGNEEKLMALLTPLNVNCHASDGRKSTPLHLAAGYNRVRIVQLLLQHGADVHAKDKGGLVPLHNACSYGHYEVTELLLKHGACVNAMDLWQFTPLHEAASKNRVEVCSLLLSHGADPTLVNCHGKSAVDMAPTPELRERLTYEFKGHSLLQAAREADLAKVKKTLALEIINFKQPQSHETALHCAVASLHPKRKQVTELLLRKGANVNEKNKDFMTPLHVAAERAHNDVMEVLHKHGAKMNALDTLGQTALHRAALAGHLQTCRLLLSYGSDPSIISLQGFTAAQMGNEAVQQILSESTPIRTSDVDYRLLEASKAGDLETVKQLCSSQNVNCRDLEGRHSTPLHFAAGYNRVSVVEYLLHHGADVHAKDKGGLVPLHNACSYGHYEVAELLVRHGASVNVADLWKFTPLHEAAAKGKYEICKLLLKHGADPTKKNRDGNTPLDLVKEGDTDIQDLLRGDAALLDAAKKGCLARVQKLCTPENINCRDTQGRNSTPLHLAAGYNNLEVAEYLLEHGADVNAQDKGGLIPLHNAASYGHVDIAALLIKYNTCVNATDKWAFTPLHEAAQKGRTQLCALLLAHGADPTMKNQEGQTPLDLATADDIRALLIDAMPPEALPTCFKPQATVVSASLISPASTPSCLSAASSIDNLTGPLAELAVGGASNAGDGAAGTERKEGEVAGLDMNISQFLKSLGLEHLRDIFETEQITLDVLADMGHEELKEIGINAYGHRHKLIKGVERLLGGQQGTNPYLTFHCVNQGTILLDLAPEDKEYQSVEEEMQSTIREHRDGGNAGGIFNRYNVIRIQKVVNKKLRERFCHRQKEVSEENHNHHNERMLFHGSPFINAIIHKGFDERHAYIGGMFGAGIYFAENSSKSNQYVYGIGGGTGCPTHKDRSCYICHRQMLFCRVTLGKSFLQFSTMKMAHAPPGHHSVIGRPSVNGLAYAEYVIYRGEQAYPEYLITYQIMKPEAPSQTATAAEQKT
The assay can be described thus: Binding affinity to recombinant human N-terminal GSt-tagged TNKS1 (1000 to 1328 residues) expressed in baculovirus infected Sf9 cells by surface plasmon resonance analysis.

Assay [4] addresses Poly [ADP-ribose] polymerase 1 (Homo sapiens, UniProt P09874). In words: Binding affinity to recombinant human PARP1 expressed in baculovirus infected Sf9 cells by surface plasmon resonance analysis.
The test system of assay [5] is A549. In words: Antiproliferative activity against human A549 cells assessed as effect on cell viability at 100 uM after 72 hrs by MTT assay relative to control. The class given is functional.
Assay [6] addresses T3, Bromodomain-containing protein 9 (Homo sapiens) (UniProt Q9H8M2).
T3 sequence (whole entry): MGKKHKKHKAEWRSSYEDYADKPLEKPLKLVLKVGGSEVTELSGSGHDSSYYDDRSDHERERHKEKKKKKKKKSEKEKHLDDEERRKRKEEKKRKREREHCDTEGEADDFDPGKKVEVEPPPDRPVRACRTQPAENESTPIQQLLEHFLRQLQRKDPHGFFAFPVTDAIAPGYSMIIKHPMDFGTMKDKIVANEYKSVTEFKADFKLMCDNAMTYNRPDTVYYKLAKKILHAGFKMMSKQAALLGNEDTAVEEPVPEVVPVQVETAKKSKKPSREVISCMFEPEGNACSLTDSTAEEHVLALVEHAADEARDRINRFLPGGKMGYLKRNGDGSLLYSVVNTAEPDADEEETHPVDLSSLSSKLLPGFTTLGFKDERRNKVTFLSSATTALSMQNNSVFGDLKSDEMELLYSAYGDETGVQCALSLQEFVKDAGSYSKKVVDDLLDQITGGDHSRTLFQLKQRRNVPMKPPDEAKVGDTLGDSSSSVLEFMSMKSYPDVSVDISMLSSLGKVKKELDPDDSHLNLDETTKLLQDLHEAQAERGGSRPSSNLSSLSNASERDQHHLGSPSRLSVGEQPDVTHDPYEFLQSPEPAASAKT
In words: Binding affinity to BRD9 (unknown origin) by surface plasmon resonance analysis.

The subject of assay [7] is A549.
Description: (§1) Growth inhibition of human A549 cells after 72 hrs by MTT assay
Assay [8] deals with A549. In words: cells. The note with it: Homo sapiens, A549, 72 h.
Description: as §1

Sequence of Casein kinase II alpha/beta (P67870 whole entry): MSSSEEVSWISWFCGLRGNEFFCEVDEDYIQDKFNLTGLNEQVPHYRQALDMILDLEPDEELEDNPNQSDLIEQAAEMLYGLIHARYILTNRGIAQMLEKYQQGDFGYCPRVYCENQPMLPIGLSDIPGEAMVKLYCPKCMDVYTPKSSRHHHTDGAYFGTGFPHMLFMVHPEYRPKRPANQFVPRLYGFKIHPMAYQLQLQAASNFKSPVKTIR
Sequence of Casein kinase II alpha/beta (P68400 whole entry): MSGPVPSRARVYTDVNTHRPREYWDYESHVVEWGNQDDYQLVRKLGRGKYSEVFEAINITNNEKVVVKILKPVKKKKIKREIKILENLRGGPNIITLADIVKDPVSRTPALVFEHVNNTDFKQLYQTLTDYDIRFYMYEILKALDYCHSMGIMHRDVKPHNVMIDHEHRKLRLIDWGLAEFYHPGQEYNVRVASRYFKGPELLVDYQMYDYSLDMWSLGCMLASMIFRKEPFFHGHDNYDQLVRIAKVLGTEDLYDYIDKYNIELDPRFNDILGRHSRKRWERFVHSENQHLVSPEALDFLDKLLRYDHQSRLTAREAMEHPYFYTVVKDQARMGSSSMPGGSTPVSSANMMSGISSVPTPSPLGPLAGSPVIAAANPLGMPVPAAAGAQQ
Sequence of Poly [ADP-ribose] polymerase 1 (P09874 whole entry): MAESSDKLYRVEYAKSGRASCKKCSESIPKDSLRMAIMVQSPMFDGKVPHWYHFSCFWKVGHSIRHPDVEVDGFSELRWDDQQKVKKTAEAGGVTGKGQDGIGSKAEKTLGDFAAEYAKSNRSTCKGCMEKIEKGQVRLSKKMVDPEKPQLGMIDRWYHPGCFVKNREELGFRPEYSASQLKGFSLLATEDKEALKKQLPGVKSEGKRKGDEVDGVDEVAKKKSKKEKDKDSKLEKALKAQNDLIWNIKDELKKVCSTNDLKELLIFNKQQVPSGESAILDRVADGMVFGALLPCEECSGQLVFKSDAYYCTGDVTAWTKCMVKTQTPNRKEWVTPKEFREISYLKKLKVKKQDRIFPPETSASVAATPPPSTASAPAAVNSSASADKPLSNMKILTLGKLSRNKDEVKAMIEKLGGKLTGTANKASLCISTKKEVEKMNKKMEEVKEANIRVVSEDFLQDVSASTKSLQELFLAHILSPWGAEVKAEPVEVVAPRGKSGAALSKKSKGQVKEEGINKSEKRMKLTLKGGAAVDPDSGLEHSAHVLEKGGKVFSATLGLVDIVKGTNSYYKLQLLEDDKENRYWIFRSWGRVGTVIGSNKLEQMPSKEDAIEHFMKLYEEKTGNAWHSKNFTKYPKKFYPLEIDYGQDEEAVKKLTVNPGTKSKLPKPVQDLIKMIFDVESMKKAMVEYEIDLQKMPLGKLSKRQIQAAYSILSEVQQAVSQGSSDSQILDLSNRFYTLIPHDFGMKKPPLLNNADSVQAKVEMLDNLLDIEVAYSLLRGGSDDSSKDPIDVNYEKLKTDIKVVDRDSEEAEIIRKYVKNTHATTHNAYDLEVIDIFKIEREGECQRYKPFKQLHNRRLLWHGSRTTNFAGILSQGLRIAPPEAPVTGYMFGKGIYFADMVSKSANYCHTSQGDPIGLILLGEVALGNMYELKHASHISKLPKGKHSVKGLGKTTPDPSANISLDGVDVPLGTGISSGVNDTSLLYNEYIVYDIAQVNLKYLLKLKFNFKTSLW

As for `COc1cc(CCCO)cc(-c2cc(CCCO)cc(OC)c2O)c1O`, the equilibrium dissociation constant (Kd) (usually a measure of binding affinity in units of concentration) was 18.5 nM in assay [1] (read-out: Kd), “Not Active” in assay [2], “Not Active” in assay [3] (sf9) and “Not Active” in assay [4] (sf9). For the same compound, the Activity with A549 [5] is 20 - 30%. Further, the outcome in assay [6] was inactive. Moreover, in the assay on A549 [7], the half-maximal inhibitory concentration (IC50) (in general, the concentration that inhibits the measured activity by half) is reported as “Not Active”.

In the assay on A549 [8], `Oc1nc(-c2ccc(C(F)(F)F)cc2)nc2c1CSCC2` registered an IC50 of 12300 nM.

As for `C=CCc1ccc(O)c(-c2cc(CC=C)cc(O)c2O)c1`, the Kd result in assay [1] was “Not Active”; in assay [2], “Not Active”; in assay [3] (read-out: Kd), 5260 nM; in assay [4] (read-out: Kd) it was 1250 nM. Moreover, in assay [6], the result was inactive.

In the case of `C=CCc1ccc(O)c(-c2cc(CC=C)ccc2O)c1` [MAGNOLOL], the Kd entry in assay [1], in assay [2], in assay [3] (sf9) and in assay [4] (sf9) was “Not Active” each time. For the same compound, in assay [6], the result was inactive.

As for `C=CCc1cc(O)c(O)c(-c2cc(CC=C)cc(OC)c2O)c1`, the dissociation constant (Kd) was 21 nM in assay [1] (read-out: Kd), “Not Active” in assay [2], 520 nM in assay [3] (read-out: Kd) and “Not Active” in assay [4] (sf9). For the same compound, the result in assay [6] was inactive. The same compound returned an IC50 in the assay with A549 [8] of 4700 nM.

Take `COc1cc(CCCOC(C)=O)cc(-c2cc(CCCOC(C)=O)cc(OC)c2O)c1O`: the dissociation constant Kd is 6.5 nM in assay [1] (read-out: Kd), “Not Active” in assay [2], “Not Active” in assay [3] (sf9) and “Not Active” in assay [4] (sf9). Besides, in the assay on A549 [5], the Activity was 20 - 30%. Moreover, the result in assay [6] was inactive. In addition, the half-maximal inhibitory concentration (IC50) entry in the assay with A549 [7] is given as “Not Active”.
